Test results: patent US7235392B2, “Apoptotic EBV-transformed lymphocytes, a therapeutic agent for post-transplant lymphoproliferative disorder” (The Ohio State University Research Foundation, priority 2001, dated 2007)

Legend:
[1] = tested on: PA-Lymphoblastoid Cell Line; assay: PA-Lymphoblastoid Cell Line: effect of oxygen deprivation in the presence of 3 sensitizers (cell counts); assay type: cell-based; conditions: for cell count, Time (hour) 0: time 0 h; for cell count, Time (hour) 0 / cell count, Time (hour) 4 / cell count, Time (hour) 20: solutions and cells bubbled with nitrogen for 15 minutes (oxygen deprivation); for cell count, Time (hour) 4: time 4 h; for cell count, Time (hour) 20: time 20 h
Method: PA-Lymphoblastoid Cell Line: Study of the effect of oxygen deprivation in the presence of 3 sensitizers Six solutions were prepared having the solutions and the cells from each of the 6 sets were “bubbled” with nitrogen separately for 15 minutes before being mixed.

[2] = tested on: LCLs; assay: Cell synchronization with aphidicolin, flow cytometric cell cycle analysis of propidium iodide stained cells; assay type: cell-based, human
Excerpt: Using a method described by Matherly^1 cell synchronization may be achieved with the drug aphidicolin, a DNA polymerase inhibitor. This drug prevents the cells from entering S-phase, the phase during which the cells replicate their DNA. Therefore, the cells accumulate at G1 phase, immediately prior to the start of S phase. These effects of aphidicolin are reversible; the cells return to normal cell-cycling soon after the drug is removed from the culture by washing. Thus, because all of the cells were synchronized together in G1, after removal of aphidicolin, they will proceed through S-phase together. Using flow cytometric analyis of propidium-iodine stained cells, as described by Krishan^2, we were able to determine the stage of cell cycle of the cultures:
Consequently, we hypothesize that treatment with aphidicolin will increase the effectiveness of specific killing via RBO-DNA photochemistry.

[3] = tested on: EBV infected human lymphoblastoid cells (LCLs); conditions: 10 mM glutathione

SMILES	hypoxic toxicity ([1]; oxygen deprivation, conclusion from cell counts)	cell count, Time (hour) 0 [1] [million cells/mL]	cell count, Time (hour) 4 [1] [million cells/mL]	cell count, Time (hour) 20 [1] [million cells/mL]	proportion of cells in S-phase ([2]; after aphidicolin treatment and removal)	time of peak proportion of cells in S-phase after removal of aphidicolin ([2]; after removal of aphidicolin from solution) [h]	cell growth [3]
Cc1cc2c(cc1C)[n+]([O-])c1c(=O)[nH]c(=O)nc-1n2CC(O)C(O)C(O)CO (stereo not shown) [RBO, riboflavin N-oxide]	high hypoxic toxicity	0.45	0.46	0.06	–	–	–
Cc1cc2nc3c(=O)[nH]c(=O)nc-3n(C[C@H](O)[C@H](O)[C@H](O)CO)c2cc1C [Riboflavin (RB), Riboflavin]	–	1	0.9	0.63	–	–	–
Nc1n[n+]([O-])c2ccccc2[n+]1[O-] [Tirapazamine (TPZ), Tirapazamine]	–	0.4	0.4	0.36	–	–	–
C[C@@]1(CO)[C@H](O)CC[C@@]2(C)[C@H]1CC[C@H]1C[C@@H]3C[C@@]12CC[C@]3(O)CO [aphidicolin]	–	–	–	–	significantly increases	6	–
N[C@@H](CCC(=O)N[C@@H](CS)C(=O)NCC(=O)O)C(=O)O [glutathione]	–	–	–	–	–	–	grow normally
